# Experimental data reported in PubChem BioAssay (NCI).
#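 Cells were grown in 96-well plates and exposed to each compound for 48 hours at five concentrations; endpoints were interpolated linearly between bracketing concentrations, or set to the highest concentration if not reached. GI50: concentration for 50% inhibition of growth. TGI: concentration producing complete growth inhibition.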
# What was measured:
# Experiment in all cases: NCI anticancer screen, dose series, 48 h
# T-47D breast = tested on: T-47D breast
# SF-295 CNS = tested on: SF-295 CNS
# HOP-62 NSCLC = tested on: HOP-62 NSCLC
# OVCAR-5 ovarian = tested on: OVCAR-5 ovarian
# PC-3 prostate = tested on: PC-3 prostate
# UACC-257 melanoma = tested on: UACC-257 melanoma
# HOP-92 NSCLC = tested on: HOP-92 NSCLC
# K-562 leukemia = tested on: K-562 leukemia
# HS 578T breast = tested on: HS 578T breast
# OVCAR-8 ovarian = tested on: OVCAR-8 ovarian
SMILES,GI50 (T-47D breast) [µM],TGI (T-47D breast) [µM],GI50 (SF-295 CNS) [µM],TGI (SF-295 CNS) [µM],GI50 (HOP-62 NSCLC) [µM],TGI (HOP-62 NSCLC) [µM],GI50 (OVCAR-5 ovarian) [µM],TGI (OVCAR-5 ovarian) [µM],GI50 (PC-3 prostate) [µM],TGI (PC-3 prostate) [µM],GI50 (UACC-257 melanoma) [µM],TGI (UACC-257 melanoma) [µM],GI50 (HOP-92 NSCLC) [µM],TGI (HOP-92 NSCLC) [µM],GI50 (K-562 leukemia) [µM],TGI (K-562 leukemia) [µM],GI50 (HS 578T breast) [µM],TGI (HS 578T breast) [µM],GI50 (OVCAR-8 ovarian) [µM],TGI (OVCAR-8 ovarian) [µM]
CCCCC(CCCCCC(CCCC)NCc1ccc2c(c1)OCO2)NCc1ccc2c(c1)OCO2 (configuration not stated),0.315,0.933,1.76,3.4,0.836,2.13,1.66,3.08,1.01,2.53,0.199,0.378,0.569,2.08,0.186,0.46,0.977,2.92,0.393,0.967
CCCc1n(Cc2ccc3ccccc3c2)cc[n+]1Cc1ccc2ccccc2c1,0.377,3.17,1.44,3.34,1.26,2.8,1.43,3.32,1.17,3.49,0.466,1.76,0.863,2.66,0.414,1.75,1.75,6.67,,
COc1cccc(/C=C/C(=O)c2ccc(SC)cc2)c1OC,11.6,35.2,,,19.3,34.2,18.7,34.2,17,43.8,15.7,29.3,21.6,54.1,4.97,64.2,25.3,56.6,12.7,25.6
NC(=NCc1ccccc1)C(N=Nc1ccccc1)C(=O)NCc1ccccc1 (configuration not stated),13.6,35.4,1.9,5.16,12.6,29.6,18,44.7,1.84,4.02,26.8,69.5,1.78,7.38,,,2.92,13.9,3.56,15.2
O=C1C(Cl)=C(Nc2ccc(Nc3ccccc3)c(NC3=C(Cl)C(=O)c4ccccc4C3=O)c2)C(=O)c2ccccc21,1.95,4.75,3.79,19.9,2.71,> 100,24,66.8,3.63,24.8,6.12,33.7,0.0439,3.27,,,1.87,6.36,4.08,> 100
